# System: HCV replicon, genotype-1a variant with glutamine 30 changed to glutamate in the NS5A protein
# Test: microbe, parasite or virus in culture
# Format: cell-based, HCV genotype 1a
# Conditions: HCV replicon genotype 1a Q30E (Q→E) variant; test compound titrated with an NS5A-targeting compound (BMS-790052 fixed at 200 nM); ranking of synergist activity
# Procedure, shortened: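 Synergy was assessed by combining several fixed amounts of an NS5A-targeting compound with a titration of the second compound of interest.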
row,SMILES,Fold-Synergistic 1a (Q30E)
1,CC[C@H](NC(=O)CC(C)C)c1nc(-c2ccc(-c3ccc(-c4c[nH]c([C@H](CC)NC(=O)CC(C)C)n4)cc3)cc2)c[nH]1 [Compound N-42],>100 fold
2,C=CCC(F)(F)C(=O)N[C@H](c1nc(-c2ccc(-c3ccc(-c4c[nH]c([C@@H](NC(=O)C(F)(F)CC=C)C(C)(C)C)n4)cc3)cc2)c[nH]1)C(C)(C)C [Compound S-287],>100 fold
3,CC(C)(C)[C@H](NC(=O)[C@@H]1COCCN1CC(F)(F)F)c1nc(-c2ccc(-c3ccc(-c4c[nH]c([C@@H](NC(=O)[C@@H]5COCCN5CC(F)(F)F)C(C)(C)C)n4)cc3)cc2)c[nH]1 [Compound L-68],>100 fold
4,CC(C)[C@H](NC(=O)c1cc(Cl)ccc1F)c1nc(-c2ccc(-c3ccc(-c4c[nH]c([C@@H](NC(=O)c5cc(Cl)ccc5F)C(C)C)n4)cc3F)cc2)c[nH]1 [Compound N-99],>100 fold
5,CC(C)(C)[C@H](NC(=O)C1CCC(C(F)F)CC1)c1nc(-c2ccc(-c3ccc(-c4c[nH]c([C@@H](NC(=O)C5CCC(C(F)F)CC5)C(C)(C)C)n4)cc3)cc2)c[nH]1 (some centres unmarked) [Compound Y-71],>100 fold
6,CCC(C)[C@H](NC(=O)CC(C)C)c1nc(-c2ccc(-c3ccc(-c4c[nH]c([C@@H](NC(=O)CC(C)C)C(C)CC)n4)cc3)cc2)c[nH]1 (some centres unmarked) [Compound N-34],>100 fold
7,O=C(c1ccccc1)N1CCC[C@H]1c1ncc(-c2ccc(-c3ccc(-c4cnc([C@@H]5CCCN5C(=O)c5ccccc5)[nH]4)cc3)cc2)[nH]1 [Compound S-106],<10 fold
8,CC(C)(C)C(=O)N[C@H](c1nc(-c2ccc(-c3ccc(-c4c[nH]c([C@@H](NC(=O)C(C)(C)C)C(C)(C)C)n4)c(F)c3)cc2)c[nH]1)C(C)(C)C [Compound N-93],>100 fold
9,COC(=O)N[C@H](C(=O)N[C@H](c1nc(-c2ccc(-c3ccc(-c4c[nH]c([C@@H](NC(=O)[C@@H](NC(=O)OC)C(C)C)C5CC5)n4)cc3)cc2)c[nH]1)C1CC1)C(C)C [Compound P-3],>10 fold
10,CC(C)CC(=O)NC1(c2nc(-c3ccc(-c4ccc(-c5c[nH]c(C6(NC(=O)CC(C)C)CC=CC6)n5)cc4)cc3)c[nH]2)CC=CC1 [Compound N-16],<10 fold
11,CC(C)[C@H](NC(=O)c1cc(Cl)ccc1F)c1nc(-c2ccc(-c3ccc(-c4c[nH]c([C@@H](NC(=O)c5cc(Cl)ccc5F)C(C)C)n4)c(F)c3)cc2)c[nH]1 [Compound N-88],>100 fold
12,CC(C)(C)[C@H](NC(=O)C1CCN(c2cccc(C#N)c2)C1=O)c1nc(-c2ccc(-c3ccc(-c4c[nH]c([C@@H](NC(=O)C5CCN(c6cccc(C#N)c6)C5=O)C(C)(C)C)n4)cc3)cc2)c[nH]1 (some centres unmarked) [Compound S-291],>100 fold
13,CC(C)(C)[C@H](NC(=O)[C@@]1(C)CC(F)(F)CO1)c1nc(-c2ccc(-c3ccc(-c4c[nH]c([C@@H](NC(=O)[C@@]5(C)CC(F)(F)CO5)C(C)(C)C)n4)cc3)cc2)c[nH]1 [Compound Y-77],>100 fold
14,Cc1cc(-c2ccc(-c3c[nH]c([C@@H](NC(=O)C4CCC(F)(F)CC4)C(C)C)n3)cc2)ccc1-c1c[nH]c([C@@H](NC(=O)C2CCC(F)(F)CC2)C(C)C)n1 [Compound N-82],>100 fold
15,COC(=O)N[C@@H](C(=O)N[C@@H](CC(C)C)c1nc(-c2ccc(-c3ccc(-c4c[nH]c([C@H](CC(C)C)NC(=O)[C@H](NC(=O)OC)C(C)C)n4)cc3)cc2)c[nH]1)C(C)C [Compound N-29],>10 fold
16,CC(C)(C)[C@H](NC(=O)c1ccccc1O)c1nc(-c2ccc(-c3ccc(-c4c[nH]c([C@@H](NC(=O)c5ccccc5O)C(C)(C)C)n4)cc3)cc2)c[nH]1 [Compound Y-72],>100 fold
17,CC(C)(C)[C@H](NC(=O)[C@H]1CCC(=O)O1)c1nc(-c2ccc(-c3ccc(-c4c[nH]c([C@@H](NC(=O)[C@H]5CCC(=O)O5)C(C)(C)C)n4)cc3)cc2)c[nH]1 [Compound L-79],<10 fold
18,Cc1ccc(C2(C(=O)N3CCC[C@H]3c3ncc(-c4ccc(-c5ccc(-c6cnc([C@@H]7CCCN7C(=O)C7(c8ccc(C)cc8)CCCC7)[nH]6)cc5)cc4)[nH]3)CCCC2)cc1 [Compound S-152],<10 fold
19,CC1([C@H](NC(=O)[C@@]2(C)CC(F)(F)CCO2)c2nc(-c3ccc(-c4ccc(-c5c[nH]c([C@@H](NC(=O)[C@@]6(C)CC(F)(F)CCO6)C6(C)CC6)n5)cc4)cc3)c[nH]2)CC1 [Compound Y-82],>100 fold
20,CC(C)(C)OC(=O)N1CC(C)(C)OC[C@H]1C(=O)N[C@H](c1nc(-c2ccc(-c3ccc(-c4c[nH]c([C@@H](NC(=O)[C@@H]5COC(C)(C)CN5C(=O)OC(C)(C)C)C(C)(C)C)n4)cc3)cc2)c[nH]1)C(C)(C)C [Compound L-60],>100 fold
21,CC(C)(C)[C@H](NC(=O)C(=O)c1cccs1)c1nc(-c2ccc(-c3ccc(-c4c[nH]c([C@@H](NC(=O)C(=O)c5cccs5)C(C)(C)C)n4)cc3)cc2)c[nH]1 [Compound W-19],>100 fold

row,SMILES,Fold-Synergistic 1a (Q30E)
1,COC(=O)N(C)C1(C(=O)N[C@H](c2nc(-c3ccc(-c4ccc(-c5c[nH]c([C@@H](NC(=O)C6(N(C)C(=O)OC)CC6)C6(C)CC6)n5)cc4)cc3)c[nH]2)C2(C)CC2)CC1 [Compound L-30],>100 fold
2,Cc1cc(-c2ccc(-c3c[nH]c([C@@H](NC(=O)c4c(F)cccc4Cl)C(C)C)n3)cc2)ccc1-c1c[nH]c([C@@H](NC(=O)c2c(F)cccc2Cl)C(C)C)n1 [Compound N-81],>100 fold
3,CC(C)[C@H](NC(=O)C(C)(C)F)c1nc(-c2ccc(-c3ccc(-c4c[nH]c([C@@H](NC(=O)C(C)(C)F)C(C)C)n4)c(F)c3)cc2)c[nH]1 [Compound N-90],>100 fold
4,CC(C)(C)[C@H](NC(=O)C1(CO)CCCCO1)c1nc(-c2ccc(-c3ccc(-c4c[nH]c([C@@H](NC(=O)C5(CO)CCCCO5)C(C)(C)C)n4)cc3)cc2)c[nH]1 (some centres unmarked) [Compound P-180],>100 fold
5,O=C(c1cccc(Oc2ccccc2)c1)N1CCC[C@H]1c1ncc(-c2ccc(-c3ccc(-c4cnc([C@@H]5CCCN5C(=O)c5cccc(Oc6ccccc6)c5)[nH]4)cc3)cc2)[nH]1 [Compound S-116],<10 fold
6,CC(C)(C)[C@H](NC(=O)C1CCCOC1)c1nc(-c2ccc(-c3ccc(-c4c[nH]c([C@@H](NC(=O)C5CCCOC5)C(C)(C)C)n4)cc3)cc2)c[nH]1 (some centres unmarked) [Compound W-131],>100 fold
7,C[C@H]1CC[C@@H](C(=O)N[C@H](c2nc(-c3ccc(-c4ccc(-c5c[nH]c([C@@H](NC(=O)[C@@H]6CC[C@H](C)N6C(=O)OC(C)(C)C)C6(C)CC6)n5)cc4)cc3)c[nH]2)C2(C)CC2)N1C(=O)OC(C)(C)C [Compound W-72],>100 fold
8,C[C@]1(C(=O)N2CCC[C@H]2c2ncc(-c3ccc(-c4ccc(-c5cnc([C@@H]6CCCN6C(=O)[C@@]6(C)CCC(F)(F)CO6)[nH]5)cc4)cc3)[nH]2)CCC(F)(F)CO1 [Compound P-186],<10 fold
9,CC(C)(C)[C@H](NC(=O)CC1CCCO1)c1nc(-c2ccc(-c3ccc(-c4c[nH]c([C@@H](NC(=O)CC5CCCO5)C(C)(C)C)n4)cc3)cc2)c[nH]1 (stereo partly drawn) [Compound L-70],>100 fold
10,CC1(C(=O)N[C@H](c2nc(-c3ccc(-c4ccc(-c5c[nH]c([C@@H](NC(=O)C6(C)CC7C=CC6C7)C(C)(C)C)n5)cc4)cc3)c[nH]2)C(C)(C)C)CC2C=CC1C2 (some centres unmarked) [Compound S-298],>100 fold
11,COC(=O)N[C@@H](C(=O)NC1(c2nc(-c3ccc(-c4ccc(-c5c[nH]c(C6(NC(=O)[C@H](NC(=O)OC)C(C)C)CCCC6)n5)cc4)cc3)c[nH]2)CCCC1)C(C)C [Compound N-13],<10 fold
12,CC(C)CC(=O)NC1(c2nc(-c3ccc(-c4ccc(-c5c[nH]c(C6(NC(=O)CC(C)C)CC6)n5)cc4)cc3)c[nH]2)CC1 [Compound N-21],<10 fold
13,CC(C)(C)OC(=O)N1CC(C)(C(=O)N[C@H](c2nc(-c3ccc(-c4ccc(-c5c[nH]c([C@@H](NC(=O)C6(C)CN(C(=O)OC(C)(C)C)C6)C(C)(C)C)n5)cc4)cc3)c[nH]2)C(C)(C)C)C1 [Compound L-63],>100 fold
14,CC(C)(C)OC(=O)N1C[C@H](F)C[C@H]1C(=O)N[C@H](c1nc(-c2ccc(-c3ccc(-c4c[nH]c([C@@H](NC(=O)[C@@H]5C[C@@H](F)CN5C(=O)OC(C)(C)C)C5(C)CC5)n4)cc3)cc2)c[nH]1)C1(C)CC1 [Compound W-182],>100 fold
15,O=C(c1nccc2ccccc12)N1CCC[C@H]1c1ncc(-c2ccc(-c3ccc(-c4cnc([C@@H]5CCCN5C(=O)c5nccc6ccccc56)[nH]4)cc3)cc2)[nH]1 [Compound S-202],>100 fold
16,O=C(CC1CCCC1)N1CCC[C@H]1c1ncc(-c2ccc(-c3ccc(-c4cnc([C@@H]5CCCN5C(=O)CC5CCCC5)[nH]4)cc3)cc2)[nH]1 [Compound S-165],>10 fold
17,CC(C)(C(=O)N[C@H](c1nc(-c2ccc(-c3ccc(-c4c[nH]c([C@@H](NC(=O)C(C)(C)C(=O)N5CC6CCC(C5)O6)C(C)(C)C)n4)cc3)cc2)c[nH]1)C(C)(C)C)C(=O)N1CC2CCC(C1)O2 [Compound W-145],>10 fold
18,CC1(C(=O)N[C@H](c2nc(-c3ccc(-c4ccc(-c5c[nH]c([C@@H](NC(=O)C6(C)OCC(F)(F)CO6)C(C)(C)C)n5)cc4)cc3)c[nH]2)C(C)(C)C)OCC(F)(F)CO1 [Compound L-87],>100 fold
19,COC(=O)CCC(=O)N1CCC[C@H]1c1ncc(-c2ccc(-c3ccc(-c4cnc([C@@H]5CCCN5C(=O)CCC(=O)OC)[nH]4)cc3)cc2)[nH]1 [Compound S-173],<10 fold
20,CC(C)(C)[C@H](NC(=O)C1CC(=O)c2ccccc21)c1nc(-c2ccc(-c3ccc(-c4c[nH]c([C@@H](NC(=O)C5CC(=O)c6ccccc65)C(C)(C)C)n4)cc3)cc2)c[nH]1 (some centres unmarked) [Compound S-257],>10 fold

# Source: patent US9326973B2, “Hepatitis C virus inhibitors” (priority 2012, dated 2016)
